Laboratory results as given in patent publication US4847286A, “Cromoglycic acid derivatives, method of production thereof and pharmaceutical composition” (priority 1985, dated 1989).
Counter-ions that a name gives are not always drawn.

Columns and labels:
[1] = rabbit, in vivo, po, 5 mg/kg, 360 min
[2] = Acute toxicity test, oral route; conditions: mouse, in vivo, aqueous solution, groups of three ICR-strain male mice
Method: The cromoglycic acid derivatives produced in Examples 1, 4, 7, 11 and 12 were administered, each in the form of an aqueous solution, to groups of three ICR-strain male mice by the oral route.

[3] = in vivo; conditions: rabbit, po, 5 mg/kg
[4] = background statement; cited from earlier work

| dose excreted at 6 h [3] | Structure (SMILES) | 0-6 Hr urinary recovery [1] | LD50 [2] | absorption in the digestive tract [4] |
| --- | --- | --- | --- | --- |
|  | CCOCCOC(=O)c1cc(=O)c2c(OCC(COc3cccc4oc(C(=O)OCCOCC)cc(=O)c34)OC(=O)[C@H](C)N)cccc2o1 [Example 12, di(2-ethoxyethyl) L-alanylcromoglycate hydrochloride] | 21.8% | > 1000 mg/kg |  |
|  | CCOC(=O)c1cc(=O)c2c(OCC(COc3cccc4oc(C(=O)OCC)cc(=O)c34)OC(=O)[C@H](C)N)cccc2o1 [Example 4, diethyl L-alanylcromoglycate hydrochloride] | 20.2% | > 1000 mg/kg |  |
| 3.5% | O=C(O)c1cc(=O)c2c(OCC(O)COc3cccc4oc(C(=O)O)cc(=O)c34)cccc2o1 [Cromoglycic acid] |  |  | cannot be absorbed in the digestive tract |
|  | CCOC(=O)c1cc(=O)c2c(OCC(COc3cccc4oc(C(=O)OCC)cc(=O)c34)OC(=O)CNC(=O)[C@H](C)N)cccc2o1 [Example 7, diethyl N-(L-alanyl)glycylcromoglycate hydrochloride] | 21.4% | > 1000 mg/kg |  |
|  | CCOC(=O)c1cc(=O)c2c(OCC(COc3cccc4oc(C(=O)OCC)cc(=O)c34)OC(=O)[C@@H](N)CCCCN)cccc2o1 [Example 1, diethyl L-lysylcromoglycate dihydrochloride] | 32.6% | > 1000 mg/kg |  |
|  | CCOCCOC(=O)c1cc(=O)c2c(OCC(COc3cccc4oc(C(=O)OCCOCC)cc(=O)c34)OC(=O)[C@@H](N)CCCCN)cccc2o1 [Example 11, di(2-ethoxyethyl) L-lysylcromoglycate dihydrochloride] | 25.4% | > 1000 mg/kg |  |
